Source: patent publication US20220009920A1 (GB005, Inc., priority 2020, published 2022)

Columns and labels:
Test in all cases: Large panel kinase profiling
Format in all cases: biochemical
Settings in all cases: 1 μM test article, 1 mM ATP
[1] = target: T1, CHEK1/CHK1 (Homo sapiens, UniProt O14757)
T1 construct: AssayQuant Technologies, Inc. (ran the panel)
T1 sequence (O14757 1-476): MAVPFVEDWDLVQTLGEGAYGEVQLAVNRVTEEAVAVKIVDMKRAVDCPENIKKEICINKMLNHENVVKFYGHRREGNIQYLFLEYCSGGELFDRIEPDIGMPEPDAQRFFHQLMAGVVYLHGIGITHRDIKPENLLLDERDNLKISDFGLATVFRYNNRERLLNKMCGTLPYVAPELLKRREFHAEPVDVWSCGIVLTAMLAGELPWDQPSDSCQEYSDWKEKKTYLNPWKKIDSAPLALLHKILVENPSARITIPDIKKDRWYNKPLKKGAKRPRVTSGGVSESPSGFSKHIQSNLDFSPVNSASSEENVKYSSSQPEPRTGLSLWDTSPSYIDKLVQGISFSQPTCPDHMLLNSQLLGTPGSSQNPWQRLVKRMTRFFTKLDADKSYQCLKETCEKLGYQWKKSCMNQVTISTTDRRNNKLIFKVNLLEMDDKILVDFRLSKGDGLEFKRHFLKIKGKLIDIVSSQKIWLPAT
Method in brief: (§1)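 Kinase activity was followed with the PhosphoSens CSox-Sensor platform, testing compound at 1 μM in the presence of 1 mM ATP. Reactions ran at 30° C. and fluorescence (Ex 360 nm/Em 485 nm) was read kinetically every 1 min.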

[2] = target: T2, DYRK4 (Homo sapiens, UniProt Q9NR20)
T2 construct: AssayQuant Technologies, Inc. (service laboratory)
T2 sequence (Q9NR20 1-520): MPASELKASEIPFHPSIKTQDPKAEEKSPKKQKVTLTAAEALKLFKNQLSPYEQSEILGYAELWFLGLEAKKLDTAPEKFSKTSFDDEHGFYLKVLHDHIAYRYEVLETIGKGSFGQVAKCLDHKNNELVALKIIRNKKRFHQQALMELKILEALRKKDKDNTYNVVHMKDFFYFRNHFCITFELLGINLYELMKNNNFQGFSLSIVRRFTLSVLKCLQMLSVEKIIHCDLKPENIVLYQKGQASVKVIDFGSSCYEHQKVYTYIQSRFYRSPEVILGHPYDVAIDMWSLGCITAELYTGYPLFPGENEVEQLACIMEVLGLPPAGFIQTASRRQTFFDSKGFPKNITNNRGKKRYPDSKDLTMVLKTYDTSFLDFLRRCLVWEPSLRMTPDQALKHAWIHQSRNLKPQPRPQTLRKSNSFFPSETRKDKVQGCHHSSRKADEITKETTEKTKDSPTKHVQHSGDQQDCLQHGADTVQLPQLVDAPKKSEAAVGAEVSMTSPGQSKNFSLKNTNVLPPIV
Method in brief: as §1

[3] = target: T3, FYNB (Homo sapiens, UniProt P06241)
T3 construct: AssayQuant Technologies, Inc. (service provider)
T3 sequence (P06241 1-534 isoform P06241-2): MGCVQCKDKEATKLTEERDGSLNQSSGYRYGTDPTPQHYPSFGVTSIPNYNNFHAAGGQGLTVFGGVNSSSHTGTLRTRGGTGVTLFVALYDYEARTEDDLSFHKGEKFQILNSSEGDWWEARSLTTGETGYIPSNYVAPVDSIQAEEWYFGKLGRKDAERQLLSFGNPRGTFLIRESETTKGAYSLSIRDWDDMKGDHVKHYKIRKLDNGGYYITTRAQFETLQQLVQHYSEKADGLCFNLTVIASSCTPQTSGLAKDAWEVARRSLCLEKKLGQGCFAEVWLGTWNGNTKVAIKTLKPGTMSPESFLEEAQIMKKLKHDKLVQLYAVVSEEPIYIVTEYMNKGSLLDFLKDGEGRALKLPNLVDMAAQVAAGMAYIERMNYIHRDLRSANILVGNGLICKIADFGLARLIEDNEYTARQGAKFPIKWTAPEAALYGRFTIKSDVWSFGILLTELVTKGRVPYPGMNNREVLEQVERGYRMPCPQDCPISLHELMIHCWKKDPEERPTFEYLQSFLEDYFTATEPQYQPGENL
Method in brief: as §1

[4] = target: T4, SRPK2 (Homo sapiens, UniProt P78362)
T4 construct: AssayQuant Technologies, Inc. (contract assay)
T4 sequence (P78362 whole entry, species assumed): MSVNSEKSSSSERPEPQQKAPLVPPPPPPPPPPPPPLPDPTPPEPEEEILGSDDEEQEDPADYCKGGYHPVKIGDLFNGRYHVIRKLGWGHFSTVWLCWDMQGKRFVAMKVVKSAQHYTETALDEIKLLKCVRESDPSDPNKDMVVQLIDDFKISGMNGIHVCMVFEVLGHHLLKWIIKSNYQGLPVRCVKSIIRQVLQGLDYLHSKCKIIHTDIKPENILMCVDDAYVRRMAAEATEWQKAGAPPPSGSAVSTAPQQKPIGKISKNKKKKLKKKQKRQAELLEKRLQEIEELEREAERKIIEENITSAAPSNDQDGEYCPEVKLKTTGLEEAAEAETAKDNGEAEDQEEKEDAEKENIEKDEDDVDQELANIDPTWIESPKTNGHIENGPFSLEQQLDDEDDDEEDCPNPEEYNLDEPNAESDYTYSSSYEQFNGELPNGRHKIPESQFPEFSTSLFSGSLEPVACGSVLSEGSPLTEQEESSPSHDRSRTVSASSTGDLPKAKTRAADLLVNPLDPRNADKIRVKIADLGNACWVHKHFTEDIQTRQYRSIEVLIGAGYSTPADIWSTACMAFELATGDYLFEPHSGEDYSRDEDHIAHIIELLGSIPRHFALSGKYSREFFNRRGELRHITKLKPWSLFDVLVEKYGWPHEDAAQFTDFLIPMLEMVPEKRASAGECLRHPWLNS
Method in brief: as §1

[5] = target: T5, STK11/LKB1 (Homo sapiens, UniProt Q15831)
T5 construct: AssayQuant Technologies, Inc. (contract assay)
T5 sequence (Q15831 1-433): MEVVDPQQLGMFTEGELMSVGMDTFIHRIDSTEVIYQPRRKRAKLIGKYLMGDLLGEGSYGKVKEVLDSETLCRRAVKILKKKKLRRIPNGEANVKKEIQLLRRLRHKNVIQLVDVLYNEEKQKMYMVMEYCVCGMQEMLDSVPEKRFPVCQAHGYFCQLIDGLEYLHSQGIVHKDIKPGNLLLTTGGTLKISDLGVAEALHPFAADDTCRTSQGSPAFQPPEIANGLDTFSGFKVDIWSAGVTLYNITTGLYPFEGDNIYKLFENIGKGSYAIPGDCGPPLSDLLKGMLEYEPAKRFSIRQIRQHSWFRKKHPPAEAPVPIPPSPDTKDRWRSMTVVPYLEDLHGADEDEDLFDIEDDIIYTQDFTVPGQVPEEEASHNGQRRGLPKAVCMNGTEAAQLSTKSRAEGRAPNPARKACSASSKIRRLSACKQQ
T5 sequence (Q7RTN6 1-431 partner): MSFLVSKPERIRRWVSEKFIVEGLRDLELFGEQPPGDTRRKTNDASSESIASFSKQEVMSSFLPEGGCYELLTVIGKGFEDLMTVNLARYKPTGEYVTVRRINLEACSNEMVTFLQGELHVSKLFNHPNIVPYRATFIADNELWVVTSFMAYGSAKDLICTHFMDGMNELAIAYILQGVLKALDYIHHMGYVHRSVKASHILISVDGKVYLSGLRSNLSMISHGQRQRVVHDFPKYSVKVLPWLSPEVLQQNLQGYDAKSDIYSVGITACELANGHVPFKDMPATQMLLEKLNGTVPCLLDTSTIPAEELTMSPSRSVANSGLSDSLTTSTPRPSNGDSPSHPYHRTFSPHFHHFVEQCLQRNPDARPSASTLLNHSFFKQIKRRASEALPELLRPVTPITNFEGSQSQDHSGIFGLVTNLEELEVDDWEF
T5 sequence (Q9Y376 1-341 partner): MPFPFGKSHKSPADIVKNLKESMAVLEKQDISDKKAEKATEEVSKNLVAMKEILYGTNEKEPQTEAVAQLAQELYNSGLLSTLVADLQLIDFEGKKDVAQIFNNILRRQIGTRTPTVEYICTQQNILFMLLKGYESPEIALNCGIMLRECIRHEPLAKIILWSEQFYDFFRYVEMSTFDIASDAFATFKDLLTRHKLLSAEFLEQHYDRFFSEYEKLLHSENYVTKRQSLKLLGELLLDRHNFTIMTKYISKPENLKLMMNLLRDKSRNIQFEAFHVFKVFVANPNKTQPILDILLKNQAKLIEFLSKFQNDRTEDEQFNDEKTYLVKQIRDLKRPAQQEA
Method in brief: as §1

C=CC(=O)N1CCCC(c2c(F)cc(C(N)=O)c3[nH]c4c(c23)CCCCC4)C1 (single isomer, unassigned) [Compound 5-6]
inhibition at 1 µM [1]: -34.8% | inhibition at 1 µM [2]: 23.2% | inhibition at 1 µM [3]: 21% | inhibition at 1 µM [4]: 24.9% | inhibition at 1 µM [5]: 23.5%

C=CC(=O)N1CCC[C@@H](c2c(F)cc(C(N)=O)c3[nH]c4c(c23)CC2(CC4)CC2)C1 [Compound 6-2, (S)-5-(1-acryloylpiperidin-3-yl)-6-fluoro-1,2,4,9-tetrahydrospiro[carbazole-3,1′-cyclopropane]-8-carboxamide]
inhibition at 1 µM [1]: -23.1% | inhibition at 1 µM [2]: 15.4% | inhibition at 1 µM [3]: -20% | inhibition at 1 µM [4]: -60.6% | inhibition at 1 µM [5]: -4.3%

C=CC(=O)N1CCC[C@@H](c2c(F)cc(C(N)=O)c3[nH]c4c(c23)CCC4)C1 [Compound 10-2, (S)-8-(1-acryloylpiperidin-3-yl)-7-fluoro-1,2,3,4-tetrahydrocyclo-penta[b]indole-5-carboxamide]
inhibition at 1 µM [1]: 6.8% | inhibition at 1 µM [2]: -6.6% | inhibition at 1 µM [3]: -36.2% | inhibition at 1 µM [4]: -29.1% | inhibition at 1 µM [5]: -6%
